Source: patent US20260234165A1, “MACROCYCLIC COMPOUNDS, PREPARATION METHOD THEREFOR, AND USE THEREOF” (GENFLEET THERAPEUTICS (SHANGHAI) INC., priority 2004, published 2026)
Read-outs that look alike come from different tables or passages of the source.

What was measured:
[1] = Assay for stability in liver microsomes; format: in vitro ADME; settings: human liver microsomes
Procedure: This experiment was intended to investigate the metabolic stability of the test compounds in human liver microsomes. The materials used in the experiment included 10 mM solutions of the test compounds and the control sample, human liver microsomes, and reduced nicotinamide adenine dinucleotide phosphate (NADPH) powder. In the experiment, a 100 mM potassium phosphate buffer was used as the buffer system.
The liver microsome working solution was prepared by diluting the liver microsome stock solution to 0.75 mg/mL using the 100 mM potassium phosphate buffer. Then, 5 μL of the 10 mM stock solution of the test compound was taken, and 195 μL of methanol was added. The mixture was well mixed to prepare a working solution A with a concentration of 0.25 mM.
Subsequently, the working solution A was diluted to 1.5 μM using the liver microsome working solution to prepare a compound-liver microsome mixed solution. Additionally, NADPH powder was dissolved in a 100) mM potassium phosphate buffer to prepare a 6 mM NADPH solution. The compound-liver microsome mixed solution was dispensed into a 96-well plate at 30 μL/well, with labeled time points of 0 min, 30 min, and 60 min. For 0-min samples, 180 μL of acetonitrile containing 100 ng/mL tolbutamide and 15 μL of the NADPH solution were added directly. The 96-well plate and the NADPH solution were then preheated under a 37° C. water bath for 5 min. After the preheating, 15 μL of the NADPH solution was added to each of the 30-min and 60-min sample wells. The plate was gently shaken for mixing and then incubated under the 37° C. water bath for the corresponding time. After the incubation was completed. 180 μL of acetonitrile containing 100 ng/mL tolbutamide was added to each sample well. The plate was sealed with a sealing film, shaken for 10 min (800 rpm/min), and then centrifuged for 15 min (4000 rpm). After the centrifugation, 50 μL of the supernatant was taken and added to a 96-well plate containing 150 μL of deionized water, and then the plate was sealed and shaken for 10 min (800 rpm) for uniform mixing. Subsequently sample analysis was performed using liquid chromatography-tandem mass spectrometry (LC-MS/MS).
The elimination rate constant and clearance rate of the test compound in liver microsomes were calculated using the following formulas: Remaining rate (%)=(peak area ratio of the compound to internal standard at any time point/peak area ratio of the compound to internal standard at 0 min)×100%,^4. T1/2=0.693/ke, where ke is the elimination rate constant and T1/2 is the half-life. Liver microsome intrinsic clearance rate (CLint(mic))=0.693/(T1/2× microsome protein concentration (mg/mL)). Liver intrinsic clearance rate (CLint(liver))=CLint(mic)×microsome protein-to-liver weight ratio (mg/g)×liver-to-body weight ratio (g/kg). In the formulas, CLint(mic) is the liver microsome intrinsic clearance rate, CLint(liver) is the liver intrinsic clearance rate, and CL(liver) is the liver clearance rate. For humans, the microsome protein-to-liver weight ratio was 45 mg/g, and the liver-to-body weight ratio was 20.7 g/kg.

[2] = system: AsPC-1 cells (KRAS G12D mutation); assay: 3D cell proliferation assay (CellTiter Glo-3D), AsPC-1; format: cell-based, human; settings: medium with 2% FBS, read-out: AsPC-1 AP IC50
Procedure, shortened: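 Cells seeded at 800 per well in medium with 2% FBS, treated next day with 3.16-fold dilution series (0.1% DMSO) for 5 days at 37°C. Viability by CellTiter-Glo 3D luminescence; inhibition normalised to DMSO and cell-free controls, IC50 by four-parameter fit.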

[3] = Homo sapiens, ASPC1, 3D cell proliferation (CellTiter Glo-3D)

Row | half-life at 1 µM ([1]; NADPH, 37° C., 0/30/60 min) | CLint scaled at 1 µM ([1]; liver intrinsic clearance rate) | IC50 [2, 3] | T1/2 ([1]; NADPH, 37° C., 0/30/60 min) | CLint(liver) ([1]; liver intrinsic clearance rate) | IC50 ([2]; 3D cell proliferation (CellTiter Glo-3D)) | Compound
1 | 36 min | 44.5 mL/min/kg | 2.27 nM | – | – | – | CCn1c(-c2cc(C#CCN3CCS(=O)(=O)CC3)cnc2[C@H](C)OC)c2c3cc(ccc31)-c1csc(n1)C[C@H](Nc1nnc3cc(C)ccn13)C(=O)N1CCC[C@H](N1)C(=O)OCC(C)(C)C2 (atropisomer, axis not shown; (Ra)) [Compound Z911, (6^3S,4S,Z)—(Ra)-1^2-(5-(3-(1,1-dioxidothiomorpholino)prop-1-yn-1-yl)-2-((S)-1-methoxyethyl)pyridin-3-yl)-1^1-ethyl-10,10-dimethyl-4-((7-methyl-[1,2,4]triazolo[4,3-a]pyridin-3-yl)amino)-6^1,6^2,6^3,6^4,6^5,6^6-hexahydro-1^1H-8-oxa-2(4,2)-thiazola-1(5,3)-indola-6(1.3)-pyridazinacycloundecaphane-5,7-dione]
2 | – | – | – | 38.9 min | 41.2 mL/min/kg | 1.41 nM | CCn1c(-c2cc(C#CCN3CCCOCC3)cnc2C(C)C)c2c3cc(ccc31)-c1csc(n1)C[C@H](NC(=O)[C@H]1[C@H](C)[C@@H]1C)C(=O)N1CCC[C@H](N1)C(=O)OCC(C)(C)C2 (atropisomer, axis not shown; (Sa)) [Compound Z811-2, (1r,2R,3S)—N-((6^3S,4S,Z)—(Sa)-1-(5-(3-(1,4-oxazepan-4-yl)prop-1-yn-1-yl)-2-isopropylpyridin-3-yl)-1^1-ethyl-10,10-dimethyl-5,7-dioxo-6^1,6^2,6^3,6^4,6^5,6^6-hexahydro-1^1H-8-oxa-2(4,2)-thiazola-1(5,3)-indola-6(1,3)-pyridazinacycloundecaphane-4-yl)-2,3-dimethylcyclopropane-1-carboxamide]
3 | 48.2 min | 33.2 mL/min/kg | 13.5 nM | – | – | – | CCn1c(-c2cc(N3CCN(CCS(C)(=O)=O)CC3)cnc2[C@H](C)OC)c2c3cc(ccc31)-c1csc(n1)C[C@H](NC(=O)[C@H]1[C@H](C)[C@@H]1C)C(=O)N1CCC[C@H](N1)C(=O)OCC1(CC1)C2 (single isomer, unassigned) [Compound Z367]
4 | 64.2 min | 25 mL/min/kg | 14.1 nM | – | – | – | CCO[C@@H](C)c1ncc(N2CCN(CCS(C)(=O)=O)CC2)cc1-c1c2c3cc(ccc3n1CC)-c1csc(n1)C[C@H](NC(=O)[C@H]1[C@H](C)[C@@H]1C)C(=O)N1CCC[C@H](N1)C(=O)OCC1(CC1)C2 (single isomer, unassigned) [Compound Z378-1]
